In patent US8247227B2, “Dendritic cell precursors” (The Cleveland Clinic Foundation, priority 2006, dated 2012):

Legend:
Assay type in all cases: cell-based, mouse
[1] = tested on: Flt3L+IL6 conditioned BM cells; experiment: Immunosuppressive factors added to Step 2 culture: DC1 polarization; conditions: factor added in Step 2, TLR agonist-induced
Procedure: FIG. 7A is a histogram showing Step 2 cultures (cells were re-plated in GMCSF and IL-4 at 0 hr, CpG+LPS added at 24 hr, FACS performed at 44 hr), except that listed immunosuppressive factors were added at 0 hr, 1 hr, 2 hr, or 4 hr of Step 2 culture, and supernatants analyzed by ELISA in triplicate for IL-12 p70 content at 44 hr of Step 2 culture. Error bars indicate s.d. This is representative of three experiments;
We investigated whether Flt3L+IL6 proliferative conditioning conferred uniform responsiveness to DC1 polarization stimuli even in the presence of putative immunosuppressive factors. We added IL10, TGFβ1 VEGF, or PGE2 at doses which equaled and exceeded those reported to inhibit the maturation of other DC preparations (Kao, J Y et al. J. Immunol. 170, 3806-3811 (2003); Kobie, J J et al. Cancer Res. 63, 1860-1864 (2003); Gabrilovich, D. et al. Blood 92, 4150-4166 (1998); Dikov, M M et al. J. Immunol. 174, 215-222 (2005); Shurin, M R et al. Int. J. Cancer 101, 61-68 (2002); Yang, A S et al. Cancer Res. 63, 2150-2157 (2003); Kalinski, P. et al. J. Immunol. 161, 2804-2809 (1998)).
(§1) Step 2 was initiated (0 hr) in CM, rmGMCSF and optionally rmIL4. Step 2 cultures were performed in 24 well cluster plates, 4 million BM cells per well in 2 ml CM. DC1 polarization stimuli such as CpG (ODN 1826, 5 μM) and LPS 50 ng/ml were added between 18-24 hrs, and cells harvested at 40-44 hrs for analyses. When included, immunosuppressive agents rmIL10, rmVEGF, rhTGFβ1 or PGE2 were added between 0 and 24 hrs of Step 2 culture at doses specified in Results. Alternatively, particulate tumor cells, either viable unirradiated, viable irradiated (10,000 cGy), or killed freeze-thawed lysate (Cohen, P A et al. Cancer Res. 54, 1055-1058 (1994)), were added to Step 2 BM cells. Viable tumor cells were sometimes labelled with CFSE (Molecular Probes, Eugene, Oreg.) to allow their identification and exclusion during subsequent FACS analyses (Peng, L. et al. J. Immunol. 169, 4811-4821 (2002)).

[2] = tested on: CD34^pos stem cell subpopulation; experiment: Step 1 proliferative culture of fresh bone marrow: numeric expansion; conditions: for superimposed proliferative impacts: added to Step 1 culture
Procedure: FIG. 6 is a chart showing numeric expansion resulting from the exposure of bone marrow (BM) suspensions to various factors. BM freshly harvested from C57BL/6 mice was cultured for 6 days in the specific factors, then harvested and counted. Each bar represents 3-11 determinations±s.d., each performed in synchronous comparison to at least five other groups. […] Synergistic expansions reflected a 35-80 fold selective outgrowth of the CD34^pos subpopulation (see FIG. 10);
FIG. 10 is a histogram showing gross numeric expansion of fresh bone marrow (BM) reflective of selective outgrowth of the CD34^pos subpopulation. Freshly prepared mouse BM cell suspensions were stained with FITC-anti-CD34 mAb to enable isolation of CD34^pos and CD34^neg subpopulations by a FACSAria cell sorter. CD34^pos cells initially represented 10.8±7% of the total BM cells. The following groups were then cultured for 6 days in 75 cm^2 flasks, either in Flt3L+SCF+IL6 (striped bars) or in Flt3L+IL6 (solid bars): “Unfractionated BM” (12-15 million per flask); “FACS sorted CD34^neg cells” (12-15 million per flask); “FACS sorted CD34^pos cells” (2-3 million per flask); or “FACS sorted, unirradiated CD34^pos cells plus irradiated (3,000 cGy) CD34^neg cells.” Labels above bars indicate fold numeric expansion during the 6 day culture. […] (Not done=group not done);
We cultured fresh mouse BM in two stages, a 6-7 day proliferative phase (Step 1) and a 2-3 day post-proliferative phase (Step 2). […] FACS sorting experiments confirmed that such expansion represented a net 35-80 fold proliferation of the minor (<12%) CD34^pos stem cell subpopulation, with rapid dropout of the initially CD34^neg subpopulation (FIG. 10). Stem cell proliferation persisted well past day 7 if medium and factors were adequately replenished (not shown).
Single cell suspensions were prepared from the femurs and tibias of healthy mice (Kuriyama, H. et al. Dev. Biol. (Basel) 116, 169-178 (2004)). Following RBC lysis by ammonium chloride, no further processing was performed. […] BM cells were normally cultured for 6-7 days, harvested, counted, and washed twice in PBS prior to initiation of Step 2 cultures.

[3] = tested on: L-selectin^low T cells; experiment: T cell co-cultures with variously conditioned DCs; conditions: DCs from other conditioning treatments
Procedure: Step 2 DC cultures were performed in rGMCSF and rIL-4 with irradiated MCA-203 cells added at 24 hr and CpG+LPS added at 44 hr. Four hours later, DCs were harvested for co-culture with L-selectin^low T cells freshly harvested from MCA-203 tumor-bearing mice. T cells were co-cultured with DCs at an 8:1 ratio or were activated with immobilized anti-CD3. […] Cultures shown also received exogenous IL-2, IL-7 and IL-15.
Cultures shown also received exogenous IL2, IL7 and IL15.
Conditioned DC precursors were transferred to Step 2 culture, exposed to viable irradiated tumor, optionally further activated with CpG+LPS, then co-cultured with tolerized TDLN T cells from mice bearing the relevant tumor.
Prior to harvest of T cells from tumor-bearing mice, DCs were prepared under various Step 1 conditions in CM; Step 2 was performed in 1% non heat-deactivated mouse serum instead of FCS (CM-MS), during which BM cultures were exposed to viable irradiated tumor cells, then CpG+LPS as denoted in Results. On the day of DC harvest, T cells were freshly harvested from the tumor-draining lymph nodes of mice bearing 12 day tumors. The L-selectin^low (tolerized pre-effector) fraction of T cells was isolated by negative selection as described previously (Peng, L. et al. J. Immunol. 165, 5738-5749 (2000); Wang, L. et al. J. Translational Med. 2, 41 (2004)), and cultured in CM-MS with immobilized anti-CD3 (Peng, L. et al. J. Immunol. 165, 5738-5749 (2000); Wang, L. et al. J. Translational Med. 2, 41 (2004)) or variously conditioned DCs. Beginning on day 2 of T cell culture, some groups also received rhIL2 (24 I.U./m1), or rhIL2, rhIL7 (50 ng/ml) and rhIL15 (5 ng/ml). T cells were harvested for assays and adoptive therapy after 12 days of culture.

[4] = tested on: BM cells; experiment: Step 2 culture: spontaneous DC maturation without exogenous maturation stimuli; conditions: after Flt3L or Flt3L+IL6 conditioning
Source text: DC differentiation typically arrests at the immature stage unless DCs are exposed to additional signals such as CD40 ligation, calcium ionophore or TLR agonists (Xu, S. et al. J. Immunol. 171, 2251-2261 (2003); Bonifaz, L. et al. J. Exp. Med. 196, 1627-1638 (2002); Napolitani, G. et al. Nat. Immunol. 6, 769-776 (2005); Czerniecki, B J et al. J. Immunol. 159, 3823-3837 (1997); Mailliard, R B et al. Cancer Res. 64, 5934-5937 (2004)). […] Instead, uniform upregulation of MHC Class II and CD11c ensued within hours of transfer from Flt3L+IL6 into GMCSF, followed by upregulation of CD40, co-stimulatory molecules and CCR7 between 48 and 72 hours of Step 2 culture.
as §1

TGFI31: immunosuppressive factor, recombinant human TGFβ1
impact upon DC1 polarization (phenotypic maturation, IL12) [1]: paradoxically enhanced both phenotypic maturation and IL12 secretion

fibronectin
superimposed proliferative impacts [2]: negligible superimposed proliferative impacts

IL15
rescue of DC toxicity to T cells by exogenous cytokine [3]: could not be rescued

VEGF
impact upon DC1 polarization (phenotypic maturation, IL12) [1]: negligible impacts

CCCCC[C@H](O)/C=C/[C@H]1[C@H](O)CC(=O)[C@@H]1C/C=C\CCCC(=O)O [PGE2, prostaglandin E2, reference compound]
impact upon DC1 polarization (phenotypic maturation, IL12) [1]: substantially inhibited

B1: IL4: recombinant mouse IL4 (protein, UniProt P07750 21-140, looked up)
Interleukin-4: HIHGCDKNHLREIIGILNEVTGEGTPCTEMDVPNVLTATKNTTESELVCRASKVLRIFYLKHGKTPCLKKNSSVLMELQRLFRAFRCLDSSISCTMNESKSTSLKDFLESLKSIMQMDYS
spontaneous DC maturation with exogenous IL4 in Step 2 [4]: even more robust

B2: IL7 (protein, UniProt P13232 26-177, looked up)
Interleukin-7: DCDIEGKDGKQYESVLMVSIDQLLDSMKEIGSNCLNNEFNFFKRHICDANKEGMFLFRAARKLRQFLKMNSTGDFDLHLLKVSEGTTILLNCTGQVKGRKPAALGEAQPTKSLEENKSLKEQKKLNDLCFLKRLLQEIKTCWNKILMGTKEH
rescue of DC toxicity to T cells by exogenous cytokine [3]: could not be rescued

B3: thrombopoeitin: recombinant murine thrombopoeitin (protein, UniProt P40226 22-356, looked up)
Thrombopoietin: SPVAPACDPRLLNKLLRDSHLLHSRLSQCPDVDPLSIPVLLPAVDFSLGEWKTQTEQSKAQDILGAVSLLLEGVMAARGQLEPSCLSSLLGQLSGQVRLLLGALQGLLGTQLPLQGRTTAHKDPNALFLSLQQLLRGKVRFLLLVEGPTLCVRRTLPTTAVPSSTSQLLTLNKFPNRTSGLLETNFSVTARTAGPGLLSRLQGFRVKITPGQLNQTSRSPVQISGYLNRTHGPVNGTHGLFAGTSLQTLEASDISPGAFNKGSLAFNLQGGLPPSPSLAPDGHTPFPPSPALPTTHGSPPQLHPLFPDPSTTMPNSTAPHPVTMYPHPRNLSQET
superimposed proliferative impacts [2]: negligible superimposed proliferative impacts

B4: IL10: immunosuppressive factor, recombinant mouse IL10 (protein, UniProt P18893 19-178, looked up)
Interleukin-10: SRGQYSREDNNCTHFPVGQSHMLLELRTAFSQVKTFFQTKDQLDNILLTDSLMQDFKGYLGCQALSEMIQFYLVEVMPQAEKHGPEIKEHLNSLGEKLKTLRMRLRRCHRFLPCENKSKAVEQVKSDFNKLQDQGVYKAMNEFDIFINCIEAYMMIKMKS
impact upon DC1 polarization (phenotypic maturation, IL12) [1]: negligible impacts

B5: rSCF: recombinant stem cell factor, alternative to mSCF (protein, UniProt P20826 26-190, looked up)
Soluble KIT ligand: KEICGNPVTDNVKDITKLVANLPNDYMITLNYVAGMDVLPSHCWLRDMVIQLSLSLTTLLDKFSNISEGLSNYSIIDKLGKIVDDLVLCMEENAPKNIKESPKRPETRSFTPEEFFSIFNRSIDAFKDFMVASDTSDCVLSSTLGPEKDSRVSVTKPFMLPPVAA
effectiveness as alternative Step 1 factor ([2]; rhIL6 100 ng/ml instead of mIL6, rSCF instead of mSCF): also effective
